Measurements taken from patent publication US20200316087A1, “NOVEL COMBINATION THERAPY FOR ANXIETY DISORDERS, EPILEPSY, AND PAIN” (priority 2017, published 2020).

Assays:
[1] = system: resected human cortical tissue from epileptic patients; test: Human epileptic cerebral cortex slice electrophysiology; type: cell-based; conditions: 30 μM
Experimental: The tissue was prepared and treated as previously described (Zwart et al., J. Pharmacal. Exp. Ther., 2014, 351:124-133). Slices were maintained at 37° C. and were perfused at 1.0 ml/min first with normal ACSF (NACSF) solution for one hour to see if the tissue was spontaneously active. […] Tissue was then recorded in EACSF with a concentration of 10 μM picrotoxin for 1 hr. Subsequently, tissue was recorded in EACSF with a concentration of 10 μM of picrotoxin with 30 μM KRM-II-81 and recorded for 1 hour. Following the KRM-II-81 addition, tissue was recorded in a washout solution of EACSF and 10 μM Picrotoxin for 1 hr. The concentration of KRM-II-81 was based upon data collected in human cortical slices with perampanel and upon the need to be conservative in concentration estimates to maximize the opportunity to see an effect given limited human tissue opportunities. A second experiment was conducted using […] (50 μM) as an activator instead of picrotoxin.
Recordings were performed on microelectrode arrays of 60 electrodes as previously described (Zwart et al., J Pharmacol. Exp. Ther., 2014, 351:124-133). LFPs with sharp negative peaks below a threshold set at 3 standard deviations of the signal were marked, and the time of the maximum excursion was recorded as the time of that LFP. Time points were binned at 4 ms. […]

[2] = Unbound plasma and brain concentrations after i.p. dosing; type: in vivo, rats; conditions: for Unbound brain concentration / Unbound plasma concentration: male Sprague-Dawley rats, n=3, mean ± S.E.M.
From the text: (§1) (Table 4). Using these unbound drug concentrations, the PI based on drug levels in plasma was 3 and that based upon brain drug levels was 3.8.

[3] = system: immobility in forced-swim test; test: Forced-swim assay; type: in vivo, mice; conditions: male NIH Swiss mice, i.p., 30 min prior
Experimental: Male NIH Swiss mice (Envigo, Indianapolis, Ind.) were studied. Mice were placed in clear plastic cylinders (diameter: 10 cm; height: 25 cm) filled with 6 cm of water (22-25° C.) for six min. […] The duration of immobility during the last four min of the six min test period was scored. A mouse was recorded as immobile when floating motionless or making only those movements necessary to keep its head above water.

anticonvulsant efficacy = test: ED50 for anticonvulsant efficacy (model not stated); type: in vivo; conditions: Rattus norvegicus, ip, rats
From the text: as §1

[4] = system: human (α2), or rat (α1, α3, α5, γ2L, β3) GABAA receptor subunits; test: Whole-cell patch-clamp GABA current responses in transfected HEK-293T cells; type: cell-based; conditions: GABA EC3-5, drug concentration 100 nM
Experimental: Human […] (HEK-293T) were transiently transfected with full-length cDNAs encoding human (α2), or rat (α1, α3, α5, γ2L, β3) GABAA receptor subunits using calcium phosphate precipitation. Positively transfected cells were isolated by utilizing co-transfection of a plasmid encoding a surface antibody (pHook™-1, Invitrogen). 20-52 hours following transfection, cells were mixed with magnetic beads coated with antigen specific for the pHook antibody, isolated with a magnetic stand, and then plated onto coverslips and used for patch-clamp recordings 18-28 hours later.
Current responses to GABA were recorded in the whole-cell configuration, with cells voltage-clamped at −50 mV. The bath solution contained (in mM): 142 NaCl, 8.1 KCl, 6 MgCl2, 1 CaCl2), and 10 HEPES (4-(2-hydroxyethyl)-1-piperazineethanesulfonic acid) with pH=7.4 and osmolarity adjusted to 295-305 mOsm. The electrode (internal) solution consisted of (in mM); 153 KCl, 1 MgCl2, 5 K-EGTA (ethylene glycol-bis (β-aminoethyl ether N,N,N′N′-tetraacetate)), and 10 HEPES with pH=7.4 and osmolarity adjusted to 295-305 mOsm. […] Currents were recorded with an Axon 200B (Foster City, Calif.) patch clamp amplifier. […] Data were analyzed by two-way ANOVA followed by post-hoc Tukey's multiple comparison test. […]

Structure (SMILES)	firing rate ([1]; firing stimulated with AP-4 (50 μM), baseline 0.08±0.01) [Hz]	average firing rate ([1]; in presence of 10 μM picrotoxin, baseline 0.05±0.01 Hz) [Hz]	Unbound brain concentration ([2]; 17.3 mg/kg i.p.) [µM]	Unbound plasma concentration ([2]; 17.3 mg/kg i.p.) [µM]	Unbound brain concentration ([2]; 121 mg/kg i.p.) [µM]	Unbound plasma concentration ([2]; 121 mg/kg i.p.) [µM]	121/17.3 Ratio, brain ([2]; ratio of unbound brain concentrations at 121 and 17.3 mg/kg i.p.)	121/17.3 Ratio, plasma ([2]; ratio of unbound plasma concentrations at 121 and 17.3 mg/kg i.p.)	immobility in forced-swim assay [3]	ED50 (anticonvulsant efficacy) [mg/kg]	selectivity for α2 and α3 over α1 [4]
C#Cc1ccc2c(c1)C(c1ccccn1)=NCc1c(-c3cnco3)ncn1-2 [KRM-II-81, 5-(8-ethynyl-6-(pyridin-2-yl)-4H-benzo[f]imidazo[1,5-a][1,4]diazepin-3-yl)oxazole]	0.01±0.005	0.01±0.005	1.64 ± 0.141	3.29 ± 0.107	6.25 ± 1.652	10 ± 2.147	3.81	3.04	moderate, dose-dependent decrease in immobility	17.3	selective for α2 and α 3 over α1
C#Cc1ccc2c(c1)C(c1ccccc1)=NCc1c(-c3cnco3)ncn1-2 [KRM-II-82, 5-(8-ethynyl-6-phenyl-4H-benzo[f]imidazo[1,5-a][1,4]diazepin-3-yl)oxazole]									significantly decreased immobility time		
